Assays:
[1] = tested on: motor sensory coordination; test: Sciatic nerve chronic constriction injury (CCI) in rats, Rotarod test; format: in vivo, rat; conditions: 100 mg/ml, 0.25 ml IP
From the text: (§1) Seventy seven male Sprague Dawley rats, 3 months old, approximately 200-250 g at study initiation were included in the study. Minimum and maximum weights of the group were within a range of ±20% of group mean weight. Following several days of habituation the rats underwent baseline measurements for pain behavior (tactile-allodynia) and motor sensory assessment (rotarod test). All the rats underwent Sciatic nerve chronic constriction injury (CCI); pain development was verified on the 6th day following the operation and sensory motor behavior on the 7th. On the 8th day following the procedure the rats were assigned randomly to the various treatment groups (Table 5). Pain levels were assessed on the 6th, 10th, 16th, 25th and 30th days following the procedure. Motor sensory coordination was assessed on the 11th, 21st, 26th and 34th days. On the 35th day the rats were euthanized, the sciatic nerves (both sides) were collected and embedded in paraffin. […]
Motor sensory coordination was evaluated with the Rotarod Test. […] The rodent's ability to remain on the rotating rod is recorded (time in seconds). […]
(§2) Data were tabulated and analyzed using StatView software version 5.0 (SAS Institute Inc., San Francisco, Calif., USA). […] Behavioral statistics were calculated only for rats with data at all time points. […]

[2] = tested on: Sciatic nerve chronic constriction injury; test: Sciatic nerve chronic constriction injury (CCI) in rats, tactile allodynia test; format: in vivo, rat; conditions: 100 mg/ml, 0.25 ml IP; days 10, 16, 25 and 30
From the text: as §1, with “days.” for “days. On the 35th day the rats were euthanized, the sciatic nerves (both sides) were collected and embedded in paraffin.”
Pain level was evaluated using a Tactile allodynia test. In this test, the withdrawal response to calibrated Von Frey fibers is measured. […] Each fiber was applied to the paw five times and a percentage score of responses was calculated (see Flatters et al., Pain, 2004, 109:150-161). […]
as §2

NCC1(CC(=O)O)CCCCC1 [gabapentin]
time spent on the rotarod (motor sensory coordination) [1]: significant reduction in the time spent on the rotarod | pain (responses to 26 g stimuli) compared to day 6 [2]: significantly reduced the pain

From patent publication US9040035B2, “Treatment of pain using placental stem cells” (ANTHROGENESIS CORPORATION, priority 2011, dated 2015)
